Assays:
[1] = target: T1, AR-YFP (Homo sapiens, UniProt P10275); test: AR nuclear translocation (AR-YFP) in LNCaP cells; type: cell-based; conditions: 10 μM compound
T1 construct: expressed in transfected cells; host or cells: LNCaP
T1 sequence (P10275 1-920): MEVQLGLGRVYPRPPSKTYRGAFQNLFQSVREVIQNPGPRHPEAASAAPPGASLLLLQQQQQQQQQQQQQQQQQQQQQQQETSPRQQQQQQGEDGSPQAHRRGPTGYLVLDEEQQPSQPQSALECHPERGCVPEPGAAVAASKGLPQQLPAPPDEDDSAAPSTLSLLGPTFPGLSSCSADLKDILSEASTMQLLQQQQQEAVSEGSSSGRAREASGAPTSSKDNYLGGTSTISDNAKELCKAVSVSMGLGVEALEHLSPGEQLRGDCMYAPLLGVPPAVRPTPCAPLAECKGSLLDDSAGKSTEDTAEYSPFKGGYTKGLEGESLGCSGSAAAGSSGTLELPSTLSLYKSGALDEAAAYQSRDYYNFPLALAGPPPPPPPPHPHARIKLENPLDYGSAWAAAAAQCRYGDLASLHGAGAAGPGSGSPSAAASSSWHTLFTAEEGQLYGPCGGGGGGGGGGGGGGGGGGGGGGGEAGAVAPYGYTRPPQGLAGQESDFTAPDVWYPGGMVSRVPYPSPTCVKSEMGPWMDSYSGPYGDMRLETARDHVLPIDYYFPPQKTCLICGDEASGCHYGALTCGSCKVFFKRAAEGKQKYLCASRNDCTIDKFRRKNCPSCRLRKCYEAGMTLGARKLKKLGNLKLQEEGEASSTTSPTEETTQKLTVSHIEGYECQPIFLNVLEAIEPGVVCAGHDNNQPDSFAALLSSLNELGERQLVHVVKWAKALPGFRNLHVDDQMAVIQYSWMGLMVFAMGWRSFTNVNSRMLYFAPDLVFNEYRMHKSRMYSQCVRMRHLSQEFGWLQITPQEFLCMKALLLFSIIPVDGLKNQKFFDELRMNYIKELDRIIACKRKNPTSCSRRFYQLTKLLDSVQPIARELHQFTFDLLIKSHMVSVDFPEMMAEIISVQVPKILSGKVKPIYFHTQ
Procedure: Cells were exposed to 1 nM R1881 for an additional 2 h, fixed with paraformaldehyde, and mounted in Vectashield antifade mounting medium with DAPI (H-1200, Vector Laboratories). Cellular localization of AR was examined by fluorescence microscopy using an Axiovert 200 microscope equipped with a YFP filter (excitation, 500/20 nm; emission, 535/30 nm; Zeiss, Toronto, Ontario, Canada). Images were taken using a Axiocam MR camera and the AxioVision 4.4 software (Zeiss, Toronto, ON, Canada).

[2] = tested on: LNCaP cells; parameters: method as in PMID 18834139; conditions: cited from earlier work
[3] = tested on: PC3 cells; parameters: method as in PMID 18834139; conditions: cited from earlier work

CCC(=O)NC(CC(C)C(Cl)(Cl)Cl)C(=O)N1C(=O)C=C(OC)C1CC(C)C(Cl)Cl (stereo not shown) [SINT1, Sintokamide A]
nuclear translocation of AR in the absence of androgen [1]: AR remained cytoplasmic
nuclear translocation of AR in the presence of androgen ([1]; 1 nM R1881 2 h): Androgen induced AR translocation to the nucleus regardless of treatments
androgen-dependent growth of LNCaP cells [2]: block
effect on PC3 cells that do not depend on AR for growth and survival [3]: no effect

From publication PMC5064002, “Sintokamide A Is a Novel Antagonist of Androgen Receptor That Uniquely Binds Activation Function-1 in Its Amino-terminal Domain” (The Journal of Biological Chemistry, 2016)
